Common to all, as to experiment: relative viability (nuclei count vs DMSO), 5 days (fraction); higher = more cells survive
Compound in the assay “CX-5461 + Palbociclib”: Cc1cnc(CNC(=O)c2c(=O)c3ccc(N4CCCN(C)CC4)nc3n3c2sc2ccccc23)cn1 [CX-5461] + CC(=O)c1c(C)c2cnc(Nc3ccc(N4CCNCC4)cn3)nc2n(C2CCCC2)c1=O [Palbociclib] (partner 0.5 µM)
Put shortly:
(§1)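 The day after seeding in 1536-well plates, lung cancer cell lines were treated by pin tool with a single drug, or with a fixed anchor-drug dose together with five library-drug doses (not always all listed) in √10 steps. After 5 days, a combined fix-and-stain solution (final 0.05% Triton X-100, 1% formaldehyde, 1 ug/ml Hoechst) was added. Nuclei counted on 4× images gave relative viability as treated counts over vehicle counts, reported as the median of duplicate plates.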

Compound in the assay “IMD-0354 + Palbociclib”: O=C(Nc1cc(C(F)(F)F)cc(C(F)(F)F)c1)c1cc(Cl)ccc1O [IMD-0354] + CC(=O)c1c(C)c2cnc(Nc3ccc(N4CCNCC4)cn3)nc2n(C2CCCC2)c1=O [Palbociclib] (partner 0.5 µM)
Put shortly: as §1

Compound in the assay “IMD-0354 + Pictilisib”: O=C(Nc1cc(C(F)(F)F)cc(C(F)(F)F)c1)c1cc(Cl)ccc1O [IMD-0354] + CS(=O)(=O)N1CCN(Cc2cc3nc(-c4cccc5[nH]ncc45)nc(N4CCOCC4)c3s2)CC1 [Pictilisib] (partner 1 µM)
Put shortly: as §1

Compound in the assay “IMD-0354 + Olaparib”: O=C(Nc1cc(C(F)(F)F)cc(C(F)(F)F)c1)c1cc(Cl)ccc1O [IMD-0354] + O=C(c1cc(Cc2n[nH]c(=O)c3ccccc23)ccc1F)N1CCN(C(=O)C2CC2)CC1 [Olaparib] (partner 8 µM)
A digest of the protocol:
as §1

In the case of NCI-H2405, the relative viability with CX-5461 + Palbociclib (first compound 0.01 µM) came out at 0.515; with CX-5461 + Palbociclib (first compound 0.03162 µM) it was 0.549; in the assay with CX-5461 + Palbociclib (first compound 0.1 µM) it was 0.547; in the assay with CX-5461 + Palbociclib (first compound 0.3162 µM), 0.503; with CX-5461 + Palbociclib (first compound 1 µM), 0.45; with IMD-0354 + Palbociclib (first compound 0.04 µM) it was 0.594. Moreover, the relative viability with IMD-0354 + Palbociclib (first compound 0.1265 µM) was 0.509; with IMD-0354 + Palbociclib (first compound 0.4 µM), 0.457; with IMD-0354 + Palbociclib (first compound 1.265 µM), 0.282; in the assay with IMD-0354 + Palbociclib (first compound 4 µM), 0.261; with IMD-0354 + Pictilisib (first compound 0.04 µM), 0.536; with IMD-0354 + Pictilisib (first compound 0.1265 µM), 0.521. In addition, the relative viability with IMD-0354 + Pictilisib (first compound 0.4 µM) was found to be 0.34; with IMD-0354 + Pictilisib (first compound 1.265 µM), 0.306; with IMD-0354 + Pictilisib (first compound 4 µM) it was 0.172; with IMD-0354 + Olaparib (first compound 0.04 µM), 0.905; with IMD-0354 + Olaparib (first compound 0.1265 µM) it was 0.866; with IMD-0354 + Olaparib (first compound 0.4 µM) it was 0.491. For the same cell line, the relative viability with IMD-0354 + Olaparib (first compound 1.265 µM) and with IMD-0354 + Olaparib (first compound 4 µM) was 0.258 throughout.

As to NCI-H3122, the relative viability with CX-5461 + Palbociclib (first compound 0.01 µM) is 0.192; in the assay with CX-5461 + Palbociclib (first compound 0.03162 µM) it was 0.191; in the assay with CX-5461 + Palbociclib (first compound 0.1 µM) it was 0.175; in the assay with CX-5461 + Palbociclib (first compound 0.3162 µM) it was 0.169; in the assay with CX-5461 + Palbociclib (first compound 1 µM), 0.186; with IMD-0354 + Palbociclib (first compound 0.04 µM) it was 0.18. Besides, the relative viability was found to be 0.185 in the assay with IMD-0354 + Palbociclib (first compound 0.1265 µM); 0.213 in the assay with IMD-0354 + Palbociclib (first compound 0.4 µM); 0.163 with IMD-0354 + Palbociclib (first compound 1.265 µM); 0.135 with IMD-0354 + Palbociclib (first compound 4 µM); 0.737 with IMD-0354 + Pictilisib (first compound 0.04 µM); 0.554 with IMD-0354 + Pictilisib (first compound 0.1265 µM). In addition, the relative viability in the assay with IMD-0354 + Pictilisib (first compound 0.4 µM) is 0.527; with IMD-0354 + Pictilisib (first compound 1.265 µM) it was 0.174; in the assay with IMD-0354 + Pictilisib (first compound 4 µM), 0.173; with IMD-0354 + Olaparib (first compound 0.04 µM), 0.461; with IMD-0354 + Olaparib (first compound 0.1265 µM), 0.633; with IMD-0354 + Olaparib (first compound 0.4 µM), 0.417. In addition, the relative viability stood at 0.509 with IMD-0354 + Olaparib (first compound 1.265 µM) and 0.137 with IMD-0354 + Olaparib (first compound 4 µM).

Consider PC-3 [JPC-3], for which the relative viability with CX-5461 + Palbociclib (first compound 0.01 µM) amounted to 0.517; in the assay with CX-5461 + Palbociclib (first compound 0.1 µM), 0.533; with CX-5461 + Palbociclib (first compound 0.3162 µM), 0.543; in the assay with CX-5461 + Palbociclib (first compound 1 µM) it was 0.512; with IMD-0354 + Palbociclib (first compound 0.04 µM) it was 0.633; in the assay with IMD-0354 + Palbociclib (first compound 0.1265 µM), 0.578. Besides, the relative viability with IMD-0354 + Palbociclib (first compound 0.4 µM) stood at 0.496; with IMD-0354 + Palbociclib (first compound 1.265 µM), 0.363; with IMD-0354 + Palbociclib (first compound 4 µM) it was 0.282; with IMD-0354 + Pictilisib (first compound 0.04 µM), 0.779; with IMD-0354 + Pictilisib (first compound 0.1265 µM), 0.701; with IMD-0354 + Pictilisib (first compound 0.4 µM), 0.588. Further, the relative viability is 0.376 with IMD-0354 + Pictilisib (first compound 1.265 µM); 0.229 with IMD-0354 + Pictilisib (first compound 4 µM); 1.25 with IMD-0354 + Olaparib (first compound 0.04 µM); 1.16 in the assay with IMD-0354 + Olaparib (first compound 0.1265 µM); 0.839 with IMD-0354 + Olaparib (first compound 0.4 µM); 0.374 with IMD-0354 + Olaparib (first compound 1.265 µM). Besides, in the assay with IMD-0354 + Olaparib (first compound 4 µM), the relative viability was 0.38.

PC-14: the relative viability in the assay with CX-5461 + Palbociclib (first compound 0.01 µM) was 0.467; with CX-5461 + Palbociclib (first compound 0.03162 µM), 0.466; with CX-5461 + Palbociclib (first compound 0.1 µM), 0.239; with CX-5461 + Palbociclib (first compound 0.3162 µM) it was 0.492; with CX-5461 + Palbociclib (first compound 1 µM), 0.0872; with IMD-0354 + Palbociclib (first compound 0.04 µM) it was 0.574. The relative viability with IMD-0354 + Palbociclib (first compound 0.1265 µM) was found to be 0.533; with IMD-0354 + Palbociclib (first compound 0.4 µM) it was 0.317; in the assay with IMD-0354 + Palbociclib (first compound 1.265 µM), 0.129; with IMD-0354 + Palbociclib (first compound 4 µM), 0.189; with IMD-0354 + Pictilisib (first compound 0.04 µM), 1.05; in the assay with IMD-0354 + Pictilisib (first compound 0.1265 µM), 0.713. Also, the relative viability in the assay with IMD-0354 + Pictilisib (first compound 1.265 µM) came to 0.409; with IMD-0354 + Pictilisib (first compound 4 µM), 0.132; in the assay with IMD-0354 + Olaparib (first compound 0.04 µM), 0.223; in the assay with IMD-0354 + Olaparib (first compound 0.1265 µM), 0.276; in the assay with IMD-0354 + Olaparib (first compound 0.4 µM), 0.269; with IMD-0354 + Olaparib (first compound 1.265 µM) it was 0.0804. In addition, the relative viability in the assay with IMD-0354 + Olaparib (first compound 4 µM) turned out to be 0.126.
